Experimental data: publication PMC6149774, “Inhibition by Commercial Aminoglycosides of Human Connexin Hemichannels Expressed in Bacteria” (Molecules : A Journal of Synthetic Chemistry and Natural …, 2017)
One block for each molecule: values may come before it.

Experiments:
human Cx26 hemichannels = target: T1, human Cx26 hemichannels (Homo sapiens, UniProt P29033); experiment: Cx26-dependent growth complementation assay in LB2003 cells; assay type: cell-based; conditions: for Reduction of Cx26-dependent growth complementation: 100 μM aminoglycoside
T1 construct: Details of the human Cx26, Cx43, and Cx46 DNAs used to transform LB2003 cells have been published; expressed in transfected cells; host or cells: E. coli LB2003 (with pREP4), IPTG-induced from pQE60
Method: (§1) We then tested all AGs in Figure 4 for inhibition of connexin-dependent growth in AG-resistant LB2003 cells transformed with the pREP4 plasmid.
(§2) Basically, freshly prepared competent LB2003 containing the pREP4 plasmid were transformed with pQE60 (empty plasmid; negative control), pQE-Cx26 (human Cx26 DNA into pQE60), pQE-Cx43 (human Cx43 into pQE60) or pQE-Cx46 (human Cx46 into pQE60). After growing overnight in Luria-Bertani (LB) medium (BD, Franklin Lakes, NJ, USA) supplemented with 100 mM KCl (to allow growth) and 0.4 mg/mL ampicillin, the cells were washed four times with NLM, to remove residual potassium from the LB medium, and were resuspended in complementation growth medium to an OD600 of 0.2. NLM contained 46 mM Na2HPO4, 23 mM NaH2PO4, 8 mM (NH4)2SO4, 0.4 mM MgSO4, 0.012 mM FeSO4, 1 mM sodium citrate, 44 mM glucose, and 0.006 mM thiamine hydrochloride, pH 7.0. KLM was identical to NLM except for the equimolar replacement of Na^+ with K^+. For growth-complementation by Cx26, Cx43, and Cx46 in low-[K^+] medium we used NLM + 4 mM KCl, NLM + 8 mM KCl, and NLM + 16 mM KCl, respectively. Expression of Cx26 was induced with 0.5 mM IPTG (GoldBio, St. Louis, MO, USA) at the time of dilution to OD600 = 0.2. For growth-complementation by Cx43 and Cx46, we used 10 µM IPTG. Transformed cells in the appropriate growth medium were seeded in 24- or 96-well plates, and the plates were incubated at 30 °C, with shaking at 250 and 500 rpm, respectively. OD600 was measured after 18 h manually for the 24-well plates or in a plate reader for the 96-well plates (Falcon 353072, Corning Inc., Corning, NY, USA). The initial OD600 = 0.2 was subtracted for growth calculations.

human Cx46 hemichannels = target: T2, human Cx46 hemichannels (Homo sapiens, UniProt Q9Y6H8); experiment: Cx46-dependent growth complementation assay in LB2003 cells; assay type: cell-based; conditions: for IC50: LB2003-pREP4 cells, NLM + 16 mM KCl, 10 µM IPTG, OD600 after 18 h, mean ± SEM
T2 construct: Details of the human Cx26, Cx43, and Cx46 DNAs used to transform LB2003 cells have been published; expressed in transfected cells; host or cells: E. coli LB2003 (with pREP4), IPTG-induced from pQE60
From the text: The first task is accomplished through the use of defined media. We use Na^+ liquid medium (NLM) and K^+ liquid medium (KLM). NLM is a K^+-free phosphate-buffered medium (see Materials and Methods), whereas KLM is a K^+-rich medium that has the composition of NLM, except for the equimolar replacement of Na^+ with K^+. […] By mixing NLM and KLM it is easy to find a range of low [K^+]s where LB2003 cells expressing connexins grow. To optimize the signal-to-noise ratio we identified the “low” [K^+] at which the connexin-expressing cells grow to the highest absorbance measured at 600 nm (OD600), and then tested the dependence of the growth on the concentration of the expression inducer, isopropyl-β-D-thiogalactopyranoside (IPTG). This is important because the optimal signal-to-noise ratio depends on a balance between sufficient permeability to allow K^+ uptake through HCs and too many active HCs, which inhibits growth as a result of depolarization of the inner membrane and/or unbalanced shifts of ions and metabolites. In the case of Cx26, optimal growth is achieved with 4 mM K^+ and 500 μM IPTG, but for Cx43, 8 mM K^+ and 10 μM IPTG work best. From initial trials, we identified 16 mM K^+ and 10 μM IPTG as the best conditions for the Cx46 growth complementation assay.
This aminoglycoside 3'-phosphotransferase inactivates the AGs in Figure 4 by phosphorylation, allowing us to test for inhibition of connexin-dependent growth complementation without interference by the AG antibiotic effect. The absence of antibiotic effect in the LB2003-pREP4 cells was assayed at an AG concentration of 100 μM in cells grown in KLM (Figure 5). […] We then tested all AGs in Figure 4 for inhibition of connexin-dependent growth in AG-resistant LB2003 cells transformed with the pREP4 plasmid.
Briefly, pQE60 plasmids containing the connexin DNAs and plasmid pREP4 were used for transformation of E. coli LB2003 cells (generously provided by Dr. E.P. Bakker, Osnabrück University, Osnabrück, Germany). The pQE60 plasmids confer resistance to ampicillin, and pREP4 confers resistance to the AGs used in this study. LB2003 cells are missing three key K^+ transporters (Δtrk, Δkup, and Δkdp strains) and as a result cannot grow in low-[K^+] media [22, 23, 25]. Transformed LB2003 cells were stored as a 25% glycerol stock at −80 °C.
Basically, freshly prepared competent LB2003 containing the pREP4 plasmid were transformed with pQE60 (empty plasmid; negative control), pQE-Cx26 (human Cx26 DNA into pQE60), pQE-Cx43 (human Cx43 into pQE60) or pQE-Cx46 (human Cx46 into pQE60).

human Cx43 hemichannels = target: T3, human Cx43 hemichannels (Homo sapiens, UniProt P17302); experiment: Cx43-dependent growth complementation assay in LB2003 cells; assay type: cell-based; conditions: for IC50: LB2003-pREP4 cells, NLM + 8 mM KCl, 10 µM IPTG, OD600 after 18 h, mean ± SEM
T3 construct: Details of the human Cx26, Cx43, and Cx46 DNAs used to transform LB2003 cells have been published; expressed in transfected cells; host or cells: E. coli LB2003 (with pREP4), IPTG-induced from pQE60
T3 sequence (P17302 whole entry): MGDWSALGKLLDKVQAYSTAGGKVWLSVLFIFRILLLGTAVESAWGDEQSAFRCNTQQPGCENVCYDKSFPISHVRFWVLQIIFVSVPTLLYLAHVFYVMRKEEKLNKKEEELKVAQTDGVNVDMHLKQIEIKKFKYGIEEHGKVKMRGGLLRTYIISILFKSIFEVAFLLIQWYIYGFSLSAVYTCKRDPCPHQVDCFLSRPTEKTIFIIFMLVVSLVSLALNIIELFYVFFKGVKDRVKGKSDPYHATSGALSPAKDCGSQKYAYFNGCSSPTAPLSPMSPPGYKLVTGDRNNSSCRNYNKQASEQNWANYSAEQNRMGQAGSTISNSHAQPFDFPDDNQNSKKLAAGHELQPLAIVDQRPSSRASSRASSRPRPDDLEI
Method: as §1, §2

GJCs = test system: GJCs; design: method as in PMID 26769242, PMID 25237294; conditions: cited from earlier work
HCs = test system: HCs; design: method as in PMID 26769242, PMID 25237294; conditions: mammalian cells and frog oocytes; cited from earlier work
[1] = test system: Cx26, Cx43, and Cx46 hemichannels; experiment: Connexin-dependent growth complementation assay, all connexin groups together; assay type: cell-based, human; conditions: 100 μM aminoglycoside, AG-resistant LB2003 cells with pREP4
Method: The absence of antibiotic effect in the LB2003-pREP4 cells was assayed at an AG concentration of 100 μM in cells grown in KLM (Figure 5). […] We then tested all AGs in Figure 4 for inhibition of connexin-dependent growth in AG-resistant LB2003 cells transformed with the pREP4 plasmid.
Basically, freshly prepared competent LB2003 containing the pREP4 plasmid were transformed with pQE60 (empty plasmid; negative control), pQE-Cx26 (human Cx26 DNA into pQE60), pQE-Cx43 (human Cx43 into pQE60) or pQE-Cx46 (human Cx46 into pQE60). After growing overnight in Luria-Bertani (LB) medium (BD, Franklin Lakes, NJ, USA) supplemented with 100 mM KCl (to allow growth) and 0.4 mg/mL ampicillin, the cells were washed four times with NLM, to remove residual potassium from the LB medium, and were resuspended in complementation growth medium to an OD600 of 0.2. NLM contained 46 mM Na2HPO4, 23 mM NaH2PO4, 8 mM (NH4)2SO4, 0.4 mM MgSO4, 0.012 mM FeSO4, 1 mM sodium citrate, 44 mM glucose, and 0.006 mM thiamine hydrochloride, pH 7.0. KLM was identical to NLM except for the equimolar replacement of Na^+ with K^+. For growth-complementation by Cx26, Cx43, and Cx46 in low-[K^+] medium we used NLM + 4 mM KCl, NLM + 8 mM KCl, and NLM + 16 mM KCl, respectively. […] OD600 was measured after 18 h manually for the 24-well plates or in a plate reader for the 96-well plates (Falcon 353072, Corning Inc., Corning, NY, USA). […]

[2] = test system: Cx26, Cx43, and Cx46 hemichannels; design: method as in PMID 25585383, PMID 27789753; conditions: cited from earlier work
LB2003 cells = experiment: Antibiotic effect on growth of LB2003 cells in KLM; assay type: cell-based, Escherichia coli; conditions: 100 μM, cells grown in KLM
Method: The absence of antibiotic effect in the LB2003-pREP4 cells was assayed at an AG concentration of 100 μM in cells grown in KLM (Figure 5).
All drugs were used at a concentration of 100 μM. The cells were grown in K^+ liquid medium (KLM). […] Data were normalized to the OD600 of LB2003-pREP4 cells in the absence of drug (5.7 ± 0.1).

[3] = LB2003-pREP4 cells, NLM + 4 mM KCl, 0.5 mM IPTG, OD600 after 18 h, mean ± SEM

- IC50 (human Cx46 hemichannels): 175 ± 9 µM
- IC50 ratio relative to Cx26 for Cx46 (human Cx46 hemichannels; isoform selectivity, Cx46 IC50 / Cx26 IC50): ~ 50
- IC50 (human Cx43 hemichannels): 24 ± 2 µM
- IC50 ratio relative to Cx26 for Cx43 (human Cx43 hemichannels; isoform selectivity, Cx43 IC50 / Cx26 IC50): ~ 7
- IC50 (human Cx26 hemichannels; [3]): 3.6 ± 0.9 µM
Molecule: NC[C@H]1O[C@H](O[C@H]2[C@H](O)[C@@H](O[C@H]3O[C@H](CO)[C@@H](O)[C@H](N)[C@H]3O)[C@H](N)C[C@@H]2N)[C@H](N)[C@@H](O)[C@@H]1O [Kanamycin B, kanamycin B]

- Inhibition of Cx46-dependent growth complementation (human Cx46 hemichannels; 200 μM aminoglycoside): 37 ± 4%
- IC50 (human Cx46 hemichannels): > 200 µM
- IC50 (human Cx43 hemichannels): 201 ± 17 µM
- Reduction of Cx26-dependent growth complementation (human Cx26 hemichannels): ~ 80%
- IC50 (human Cx26 hemichannels; [3]): 42 ± 9 µM
Molecule: NC[C@@H]1O[C@H](O[C@H]2[C@@H](O)[C@H](O[C@@H]3[C@@H](O)[C@H](N)C[C@H](N)[C@H]3O[C@H]3O[C@H](CO)[C@@H](O)[C@H](O)[C@H]3N)O[C@@H]2CO)[C@H](N)[C@@H](O)[C@@H]1O [Paromomycin, paromomycin]

- Effect on Cx43-dependent growth complementation (inhibition) (human Cx43 hemichannels; 100 μM aminoglycoside): −8 ± 5%
- Reduction of Cx26-dependent growth complementation (human Cx26 hemichannels): 35 ± 3%
Molecule: NC[C@H]1O[C@H](O[C@H]2[C@H](O[C@@H]3O[C@H](CO)[C@@H](O)[C@H]3O)[C@@H](O)[C@H](N)C[C@@H]2N)[C@H](N)[C@@H](O)[C@@H]1O [ribostamycin]
- Inhibition of connexin-dependent growth [1]: only a marginal effect

The remaining lines, values behind:

Molecule: CN[C@@H]1[C@@H](O)[C@@H](O[C@@H]2[C@@H](O)[C@H](O[C@H]3O[C@H]([C@@H](C)O)[C@@H](O)[C@H](O)[C@H]3N)[C@@H](N)C[C@H]2N)OC[C@]1(C)O [Geneticin, geneticin]
- IC50 (human Cx26 hemichannels; IC50 of Cx26-dependent complementation (Figure 6), Figure 6A, fit of Hill's equation): 0.436 µM

Molecule: CNC(C)C1CCC(N)C(OC2C(N)CC(N)C(OC3OCC(C)(O)C(NC)C3O)C2O)O1 (stereo not drawn) [gentamicin]
- Effect on GJCs (GJCs): does not affect GJCs
- Effect on HCs (HCs): inhibits HCs reversibly

Molecule: kanamycin A
- Effect on HCs in LB2003 cell growth assay [2]: inhibited HCs
- Growth of AG-sensitive LB2003 cells (no pREP4) (LB2003 cells): prevented growth
